Test results reported in patent US20260327214A1, “1,3,4-OXADIAZOLE DERIVATIVE COMPOUNDS AS HISTONE DEACETYLASE 6 INHIBITOR, AND USES THEREOF” (CHONG KUN DANG PHARMACEUTICAL CORP., priority 2022, published 2026).

Legend:
human recombinant HDAC1 = target: T1, human recombinant HDAC1 (Homo sapiens, UniProt Q13547); assay: HDAC1 enzyme activity inhibition test (HDAC Fluorometric Drug Discovery Kit); assay type: biochemical; conditions: 30° C., 60 minutes, 10 μM substrate
T1 construct: purchased Enzo Life Science BML-SE456
T1 sequence (Q13547 whole entry): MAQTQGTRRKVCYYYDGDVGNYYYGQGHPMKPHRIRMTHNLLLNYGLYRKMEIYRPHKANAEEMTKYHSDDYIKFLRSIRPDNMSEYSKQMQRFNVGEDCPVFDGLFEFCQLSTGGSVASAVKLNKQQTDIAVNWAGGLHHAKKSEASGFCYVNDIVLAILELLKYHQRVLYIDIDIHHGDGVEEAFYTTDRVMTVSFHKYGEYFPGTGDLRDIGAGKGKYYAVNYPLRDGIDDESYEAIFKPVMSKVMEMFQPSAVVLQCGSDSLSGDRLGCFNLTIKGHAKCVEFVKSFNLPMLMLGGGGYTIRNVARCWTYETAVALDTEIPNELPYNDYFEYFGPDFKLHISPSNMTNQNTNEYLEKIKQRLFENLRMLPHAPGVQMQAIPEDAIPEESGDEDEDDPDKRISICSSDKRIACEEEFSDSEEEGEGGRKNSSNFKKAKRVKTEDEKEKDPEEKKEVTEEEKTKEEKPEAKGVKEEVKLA
Method in brief: (§1)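 IC50 derived from fluorescence (Ex 360, Em 460) following 30 min development with Developer II. Each reaction held 0.3 μg human recombinant HDAC1 or HDAC6, 10 μM Fluor de Lys SIRT1 substrate and 5-fold serially diluted compound, incubated 60 min at 30 °C.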

human recombinant HDAC6 = target: T2, human recombinant HDAC6 (Homo sapiens, UniProt Q9UBN7); assay: HDAC6 enzyme activity inhibition test (HDAC Fluorometric Drug Discovery Kit); assay type: biochemical; conditions: for HDAC6 selectivity (fold): HDAC6 over HDAC1; for IC50: human recombinant HDAC6, same protocol as HDAC1
T2 construct: purchased Calbiochem 382180
T2 sequence (Q9UBN7 1-1215): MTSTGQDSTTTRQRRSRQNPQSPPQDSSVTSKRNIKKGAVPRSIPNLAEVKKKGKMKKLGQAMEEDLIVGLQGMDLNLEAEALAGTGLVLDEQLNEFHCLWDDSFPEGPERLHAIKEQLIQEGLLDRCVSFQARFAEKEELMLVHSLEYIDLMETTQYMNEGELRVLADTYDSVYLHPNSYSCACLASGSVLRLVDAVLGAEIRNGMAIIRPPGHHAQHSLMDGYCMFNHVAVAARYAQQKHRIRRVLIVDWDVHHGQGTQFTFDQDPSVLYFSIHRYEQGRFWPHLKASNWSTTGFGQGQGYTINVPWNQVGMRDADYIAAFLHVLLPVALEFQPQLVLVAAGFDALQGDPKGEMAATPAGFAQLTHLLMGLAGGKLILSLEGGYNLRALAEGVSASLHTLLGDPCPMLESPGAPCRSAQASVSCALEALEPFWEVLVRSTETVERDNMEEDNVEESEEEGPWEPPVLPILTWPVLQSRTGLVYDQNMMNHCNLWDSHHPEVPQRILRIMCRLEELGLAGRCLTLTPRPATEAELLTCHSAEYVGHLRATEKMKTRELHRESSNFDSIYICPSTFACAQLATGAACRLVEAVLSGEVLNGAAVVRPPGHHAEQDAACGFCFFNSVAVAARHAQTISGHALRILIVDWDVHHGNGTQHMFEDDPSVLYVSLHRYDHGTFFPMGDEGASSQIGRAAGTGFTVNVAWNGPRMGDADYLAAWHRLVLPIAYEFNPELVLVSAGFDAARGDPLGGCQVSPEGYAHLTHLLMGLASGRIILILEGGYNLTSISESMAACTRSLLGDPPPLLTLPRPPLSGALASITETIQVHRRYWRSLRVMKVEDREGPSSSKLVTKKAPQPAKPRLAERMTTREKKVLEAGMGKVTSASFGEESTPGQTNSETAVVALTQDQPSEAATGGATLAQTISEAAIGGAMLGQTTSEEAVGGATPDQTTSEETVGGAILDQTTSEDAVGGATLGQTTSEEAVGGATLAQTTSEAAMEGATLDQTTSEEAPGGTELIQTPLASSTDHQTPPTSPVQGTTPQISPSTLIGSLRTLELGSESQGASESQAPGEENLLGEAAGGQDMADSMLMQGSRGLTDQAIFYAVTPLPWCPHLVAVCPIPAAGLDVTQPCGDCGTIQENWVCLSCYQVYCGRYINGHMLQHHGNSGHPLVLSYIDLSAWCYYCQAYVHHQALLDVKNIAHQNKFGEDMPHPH
Method in brief: as §1

IC50 (human recombinant HDAC1) [nM] | HDAC6 selectivity (fold) (human recombinant HDAC6) | IC50 (human recombinant HDAC6) [nM] | Compound
> 50000 | 1114 | 44.9 | CCN1CCc2cc(-c3nn(Cc4ccc(-c5nnc(C(F)F)o5)cn4)c(=S)o3)sc2C1 [Compound 140, 3-[[5-[5-(difluoromethyl)-1,3,4-oxadiazol-2-yl]-2-pyridyl]methyl]-5-(6-ethyl-5,7-dihydro-4H-thieno[2,3-c]pyridin-2-yl)-1,3,4-oxadiazol-2-thione]
> 50000 | 893 | 56 | CC(C)N1CCc2cc(-c3nn(Cc4ccc(-c5nnc(C(F)F)o5)cn4)c(=S)o3)sc2C1 [Compound 141, 3-[[5-[5-(difluoromethyl)-1,3,4-oxadiazol-2-yl]-2-pyridyl]methyl]-5-(6-isopropyl-5,7-dihydro-4H-thieno[2,3-c]pyridin-2-yl)-1,3,4-oxadiazol-2-thione]
> 50000 | 484 | 103 | O=c1oc(-c2ccccc2)cn1Cc1ccc(-c2nnc(C(F)F)o2)cn1 [Compound 142, 3-((5-(5-(difluoromethyl)-1,3,4-oxadiazol-2-yl)pyridin-2-yl)methyl)-5-phenyloxazol-2(3H)-one]
> 50000 | 374 | 134 | O=c1oc(-c2cccc(F)c2)cn1Cc1ccc(-c2nnc(C(F)F)o2)cn1 [Compound 143, 3-((5-(5-(difluoromethyl)-1,3,4-oxadiazol-2-yl)pyridin-2-yl)methyl)-5-(3-fluorophenyl)oxazol-2(3H)-one]
> 50000 | 185 | 271 | Cn1c(-c2ccccc2)cn(Cc2ccc(-c3nnc(C(F)F)o3)cn2)c1=O [Compound 144, 1-((5-(5-(difluoromethyl)-1,3,4-oxadiazol-2-yl)pyridin-2-yl)methyl)-3-methyl-4-phenyl-1,3-dihydro-2H-imidazol-2-one]
